We go through six compounds from patent publication US20260083865A1, “PROSTATE SPECIFIC MEMBRANE ANTIGEN (PSMA) LIGANDS AND USE THEREOF” (priority 2022, published 2026).

Assay [1] addresses T1, Fc-fusion protein of human PSMA (hPSMA-Fc) (Homo sapiens, UniProt Q04609).
T1 construct: purchased Acro Biosystems PSA-H5264
As to the kind of experiment: Surface plasmon resonance assay (Biacore T200, single cycle kinetic). To be noted: pKD category for PSMA SPR activity assay, hPSMA-Fc, 25° C.; read-out: pKD CAT (converted). The assay is classed as binding. A digest of the protocol: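 hPSMA-Fc was captured (~1000 RU) on an Fc-binding-peptide CM5 chip, and compounds were run in single cycle kinetic mode at 25° C in HBST with 0.1% DMSO. Double-blank-corrected sensorgrams were fitted to a 1:1 Langmuir model to give KD, reported as pKD.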
On the technique in general: In SPR one partner is held on a chip, and binding of the other changes the refractive index at the surface.

For assay [2], the target named is T2, PSMA-expressing C4-2 cells (Homo sapiens, UniProt Q04609).
T2 construct: PSMA-expressing C4-2 cells (ATCC, Cat. No. CRL-3314) were cultured in RPMI-1640; host or cells: C4-2 cells
T2 sequence (Q04609 whole entry): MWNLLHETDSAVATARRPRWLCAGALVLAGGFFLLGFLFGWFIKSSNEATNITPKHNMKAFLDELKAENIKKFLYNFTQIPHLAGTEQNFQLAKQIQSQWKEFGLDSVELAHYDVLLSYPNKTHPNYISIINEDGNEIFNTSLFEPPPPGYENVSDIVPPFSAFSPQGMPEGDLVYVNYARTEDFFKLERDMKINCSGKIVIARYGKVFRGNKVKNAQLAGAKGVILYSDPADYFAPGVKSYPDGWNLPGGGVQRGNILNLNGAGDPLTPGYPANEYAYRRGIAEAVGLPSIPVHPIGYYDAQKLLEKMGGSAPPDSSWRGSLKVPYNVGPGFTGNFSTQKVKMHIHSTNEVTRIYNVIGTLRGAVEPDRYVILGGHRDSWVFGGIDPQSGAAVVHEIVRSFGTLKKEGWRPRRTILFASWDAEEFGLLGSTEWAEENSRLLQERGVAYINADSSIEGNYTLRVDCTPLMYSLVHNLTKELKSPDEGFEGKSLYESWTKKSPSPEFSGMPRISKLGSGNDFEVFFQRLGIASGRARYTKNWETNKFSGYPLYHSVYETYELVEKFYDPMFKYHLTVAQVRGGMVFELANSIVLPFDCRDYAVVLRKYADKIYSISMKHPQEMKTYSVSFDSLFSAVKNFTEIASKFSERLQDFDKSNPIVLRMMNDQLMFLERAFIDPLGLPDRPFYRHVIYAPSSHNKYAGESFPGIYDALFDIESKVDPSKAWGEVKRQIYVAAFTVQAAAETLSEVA
As to the kind of experiment: FACS binding assay (competition with 50 nM PSM-0183). The settings on record: pIC50 category of FACS binding, C4-2 cells; read-out: pIC50 [C4-2] CAT (converted). A digest of the protocol: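 C4-2 cells were incubated 1 h at 4 °C with 50 nM AF488-labelled peptide PSM-0183 plus increasing test compound concentrations, then washed twice in ice-cold buffer. Median fluorescence in the AF488 channel was read by flow cytometry. IC50/pIC50 was derived by 4PL fitting of MFI versus concentration.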
On the technique in general: In flow cytometry, cells or beads pass a laser one at a time.

Numbered stars: 1 amine (or outer) side, 2 acyl side, 3 side chain; on linkers, the order of the positions; unused ones are H or OH. Bridge positions count the residues as written; N and C are the ends. Square brackets hold non-standard residues; d marks the D form. Peptide text beside a SMILES is read from it. * marks the point of attachment. DOTA = O=C(O)CN1CCN(CC(=O)O)CCN(CC(=O)*)CCN(CC(=O)O)CC1; Phe(4-Cl) = N[C@@H](Cc1ccc(Cl)cc1)C(=O)O; 2Pal = N[C@@H](Cc1ccccn1)C(=O)O; X1 = O=C(CC1CCN([*:1])CC1)[*:2]; Cit = NC(=O)NCCC[C@H](N)C(=O)O; Tle = CC(C)(C)[C@H](N)C(=O)O; Propanoyl(3-OH) = O=C(CCO)*; αMeP = C[C@@]1(C(=O)O)CCCN1; Orn = NCCC[C@H](N)C(=O)O; Aib = CC(C)(N)C(=O)O; Ahx = NCCCCCC(=O)O; NHBu = CCCCN* Where only a bound is given, the exact number is not on record here.

T1 sequence (Q04609 44-750 limits assumed): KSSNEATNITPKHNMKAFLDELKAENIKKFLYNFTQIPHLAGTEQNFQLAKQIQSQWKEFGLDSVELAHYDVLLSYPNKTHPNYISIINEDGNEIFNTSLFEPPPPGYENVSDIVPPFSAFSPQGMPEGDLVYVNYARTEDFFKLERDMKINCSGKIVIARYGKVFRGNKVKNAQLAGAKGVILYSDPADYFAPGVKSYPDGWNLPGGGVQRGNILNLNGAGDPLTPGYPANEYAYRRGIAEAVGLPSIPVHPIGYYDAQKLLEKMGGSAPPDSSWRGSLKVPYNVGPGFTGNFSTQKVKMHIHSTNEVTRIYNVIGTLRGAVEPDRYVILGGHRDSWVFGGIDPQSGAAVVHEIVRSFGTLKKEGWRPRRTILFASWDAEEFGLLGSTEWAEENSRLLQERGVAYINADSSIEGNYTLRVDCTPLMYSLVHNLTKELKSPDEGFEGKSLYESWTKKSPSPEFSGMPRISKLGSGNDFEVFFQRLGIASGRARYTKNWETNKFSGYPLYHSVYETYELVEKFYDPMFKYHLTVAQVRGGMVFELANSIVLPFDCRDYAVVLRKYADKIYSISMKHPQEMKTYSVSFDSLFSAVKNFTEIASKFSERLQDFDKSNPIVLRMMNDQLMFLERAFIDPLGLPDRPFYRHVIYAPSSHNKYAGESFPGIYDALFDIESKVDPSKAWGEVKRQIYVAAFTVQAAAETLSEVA

Take `CC(=O)N[C@H](C(=O)N1CCC[C@@]1(C)C(=O)N[C@@H](Cc1ccccc1)C(=O)N[C@H]1CSSC[C@@H](C(=O)N[C@H](C(=O)N[C@H](C(N)=O)[C@@H](C)O)C(C)(C)C)NC(=O)[C@H](CC(N)=O)NC(=O)C(C)(C)NC(=O)[C@H](CCCNC(=N)N)NC(=O)[C@H](CCCCN)NC1=O)[C@@H](C)O` [PSM-0508, Ac-Thr-Pam-Phe-[Cys-Lys-Arg-Aib-Asn-Cys]-Tle-Thr-NH2] (Ac-T[αMeP]FCKR[Aib]NC[Tle]T-NH2; disulfide 4-9): the Kd in assay [1] was < 12.6 nM. Further, the IC50 in assay [2] is < 200 nM.
For `C[C@@H](O)[C@H](NC(=O)[C@@H](NC(=O)[C@@H]1CSSC[C@H](NC(=O)[C@H](Cc2ccc(Cl)cc2)NC(=O)C(C)(C)NC(=O)CCO)C(=O)N[C@@H](CCCCN)C(=O)N[C@@H](CCCNC(=N)N)C(=O)NC(C)(C)C(=O)N[C@@H](CC(N)=O)C(=O)N1)C(C)(C)C)C(=O)N1CCC(CC(=O)N[C@H](CCCCNC(=O)CN2CCN(CC(=O)O)CCN(CC(=O)O)CCN(CC(=O)O)CC2)C(N)=O)CC1` [PSM-0509, HPA-Aib-Pcf-[Cys-Lys-Arg-Aib-Asn-Cys]-Tle-Thr-Cmp-lys(DOTA)-NH2] ({Propanoyl(3-OH)}-[Aib][Phe(4-Cl)]CKR[Aib]NC[Tle]T[X1][dK](DOTA)-NH2; disulfide 3-8), in that order: < 12.6 nM and < 200 nM.
In the same order, the values of `CCCCNC(=O)[C@@H](NC(=O)[C@@H]1CSSC[C@H](NC(=O)[C@H](Cc2ccccc2)NC(=O)C(C)(C)NC(=O)[C@@H](NC(C)=O)[C@@H](C)O)C(=O)N[C@@H](CCCCN)C(=O)N[C@@H](CCCNC(=N)N)C(=O)NC(C)(C)C(=O)N[C@@H](CC(N)=O)C(=O)N1)C(C)(C)C` [PSM-0510, Ac-Thr-Aib-Phe-[Cys-Lys-Arg-Aib-Asn-Cys]-Tle-NHBu] (Ac-T[Aib]FCKR[Aib]NC[Tle]-NHBu; disulfide 4-9) are < 12.6 nM and < 200 nM.
As for `C[C@@H](O)[C@H](NC(=O)[C@@H](NC(=O)[C@@H]1CSSC[C@H](NC(=O)[C@H](Cc2ccc(Cl)cc2)NC(=O)C(C)(C)NC(=O)[C@@H](NC(=O)CC2CCN(C(=O)CN3CCN(CC(=O)O)CCN(CC(=O)O)CCN(CC(=O)O)CC3)CC2)[C@@H](C)O)C(=O)N[C@@H](CCCN)C(=O)N[C@@H](CCCNC(=N)N)C(=O)NC(C)(C)C(=O)N[C@@H](CC(N)=O)C(=O)N1)C(C)(C)C)C(N)=O` [PSM-0511, DOTA-Cmp-Thr-Aib-Pcf-[Cys-Om-Arg-Aib-Asn-Cys]-Tle-Thr-NH2] ({DOTA}-[X1]T[Aib][Phe(4-Cl)]C[Orn]R[Aib]NC[Tle]T-NH2; disulfide 5-10), the Kd in assay [1] was < 12.6 nM. Besides, the IC50 in assay [2] was < 200 nM.
For `C[C@@H](O)[C@H](NC(=O)[C@@H](NC(=O)[C@@H]1CSSC[C@H](NC(=O)[C@H](Cc2ccccn2)NC(=O)C(C)(C)NC(=O)[C@@H](NC(=O)CC2CCN(C(=O)CN3CCN(CC(=O)O)CCN(CC(=O)O)CCN(CC(=O)O)CC3)CC2)[C@@H](C)O)C(=O)N[C@@H](CCCCN)C(=O)N[C@@H](CCCNC(N)=O)C(=O)NC(C)(C)C(=O)N[C@@H](CC(N)=O)C(=O)N1)C(C)(C)C)C(N)=O` [PSM-0512, DOTA-Cmp-Thr-Aib-Opa-[Cys-Lys-Cit-Aib-Asn-Cys]-Tle-Thr-NH2] ({DOTA}-[X1]T[Aib][2Pal]CK[Cit][Aib]NC[Tle]T-NH2; disulfide 5-10), in that order: 12.6 to 126 nM and 200 to 1260 nM.
In the same order, the values of `C[C@@H](O)[C@H](NC(=O)[C@@H](NC(=O)[C@@H]1CSSC[C@H](NC(=O)[C@H](Cc2ccccc2)NC(=O)C(C)(C)NC(=O)CCCCCNC(=O)CN2CCN(CC(=O)O)CCN(CC(=O)O)CCN(CC(=O)O)CC2)C(=O)N[C@@H](CCCCN)C(=O)N[C@@H](CCCNC(=N)N)C(=O)NC(C)(C)C(=O)N[C@@H](CC(N)=O)C(=O)N1)C(C)(C)C)C(N)=O` [PSM-0513, DOTA-Ahx-Aib-Phe-[Cys-Lys-Arg-Aib-Asn-Cys]-Tle-Thr-NH2] ({DOTA-Ahx}-[Aib]FCKR[Aib]NC[Tle]T-NH2; disulfide 3-8) are < 12.6 nM and < 200 nM.
